Source: patent US11919902B2, “Aryl-bipyridine amine derivatives as phosphatidylinositol phosphate kinase inhibitors” (HiberCell, Inc., priority 2017, dated 2024)

Legend:
GST tagged PIP4KtypeIIB = target: T1, GST tagged PIP4KtypeIIB (Homo sapiens, UniProt P78356); assay: Trans-FI P kinase assay PIP4K2B (PIP4KtypeIIB inhibition assay); assay type: biochemical; conditions: Table 4; compounds listed under IC50 range headings; 100 uM GTP, 5 nM PIP4KIIB; read-out: Trans-FI P kinase assays: PIP4K2B IC50
T1 construct: made in house; host or cells: E. coli
T1 sequence (P78356 1-416): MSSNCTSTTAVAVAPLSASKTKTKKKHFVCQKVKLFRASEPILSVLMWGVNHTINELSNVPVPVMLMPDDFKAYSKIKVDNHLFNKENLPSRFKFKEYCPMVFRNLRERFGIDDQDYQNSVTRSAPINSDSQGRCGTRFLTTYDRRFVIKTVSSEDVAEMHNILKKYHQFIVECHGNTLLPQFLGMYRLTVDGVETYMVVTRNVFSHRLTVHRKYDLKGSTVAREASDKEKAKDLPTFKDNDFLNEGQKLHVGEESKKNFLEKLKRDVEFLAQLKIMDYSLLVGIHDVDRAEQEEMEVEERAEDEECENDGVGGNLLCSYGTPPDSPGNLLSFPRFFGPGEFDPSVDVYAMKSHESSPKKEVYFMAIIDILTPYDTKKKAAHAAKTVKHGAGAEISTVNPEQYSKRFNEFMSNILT
In short: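 Purified GST-PIP4KIIB (5 nM final), 1 h preincubation with compound at 27 C, then 2 h reaction with 100 uM GTP and 80 uM PI5P plus DOPE carrier lipid in pH 7.3 HEPES/MgCl2/Triton buffer with 5% DMSO. GDP read by Transcreener FI fluorescence against a calibration curve; IC50 from % no-inhibitor activity vs log concentration.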

GST tagged PIP4KtypeIIA = target: T2, GST tagged PIP4KtypeIIA (Homo sapiens, UniProt P48426); assay: ADP-glo kinase assay PIP4K 2A (PIP4KtypeIIA inhibition assay); assay type: biochemical; conditions: Table 3; compounds listed under IC50 range headings; 10 uM ATP, 0.5 nM PIP4KIIA
T2 construct: made in house; host or cells: E. coli
T2 sequence (P48426 1-406): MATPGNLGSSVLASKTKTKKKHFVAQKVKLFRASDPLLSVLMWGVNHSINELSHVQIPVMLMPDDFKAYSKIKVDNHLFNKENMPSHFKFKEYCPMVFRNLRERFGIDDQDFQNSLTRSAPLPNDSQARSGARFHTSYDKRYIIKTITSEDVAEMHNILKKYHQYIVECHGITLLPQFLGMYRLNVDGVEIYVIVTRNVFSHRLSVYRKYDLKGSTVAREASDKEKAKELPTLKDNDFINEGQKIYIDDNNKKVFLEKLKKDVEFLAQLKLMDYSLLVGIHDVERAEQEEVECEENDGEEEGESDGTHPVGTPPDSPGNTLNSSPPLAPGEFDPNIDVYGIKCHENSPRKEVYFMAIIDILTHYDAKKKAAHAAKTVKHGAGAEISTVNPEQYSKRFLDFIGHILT
In short: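 E. coli-expressed GST-PIP4KtypeIIA (0.5 nM final) was preincubated 1 h at 27 °C with compound (up to 4.8 μM, 5% DMSO) in PI5P/DOPE lipid in 50 mM HEPES pH 7.3 with 10 mM MgCl2. The reaction was started with 10 μM ATP (final) and run 1 h. ADP was read by ADP-Glo luminescence via a calibration curve, and IC50 was taken from % residual activity.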

IC50 (GST tagged PIP4KtypeIIB) [nM] | IC50 (GST tagged PIP4KtypeIIA) [nM] | Structure (SMILES)
> 5000 | > 5000 | CCc1ccc2c(c1)N(c1ccc(-c3cncc(-c4ccnc5c4cc4n5CCN(C)C4=O)c3)cc1)C(=O)C2 [Example 151, 4-(5-(4-(6-ethyl-2-oxoindolin-1-yl)phenyl)pyridin-3-yl)-7-methyl-8,9-dihydropyrido[3′,2′:4,5]pyrrolo[1,2-a]pyrazin-6 (7H)-one]
10 to 100 | 100 to 1000 | O=C(NCCc1ccc[nH]1)c1cc2c(-c3cncc(-c4ccc(N5CCCC5=O)cc4)c3)ccnc2[nH]1 [Example 261, N-(2-(1H-pyrrol-2-yl)ethyl)-4-(5-(4-(2-oxopyrrolidin-1-yl)phenyl)pyridin-3-yl)-1H-pyrrolo[2,3-b]pyridine-2-carboxamide]
10 to 100 | 100 to 1000 | CN1CCn2c(cc3c(-c4cncc(-c5ccc(N6CC(C)(C)CC6=O)cc5)c4)ccnc32)C1=O [Example 200, 4-(5-(4-(4,4-dimethyl-2-oxopyrrolidin-1-yl)phenyl)pyridin-3-yl)-7-methyl-8,9-dihydropyrido[3′,2′:4,5]pyrrolo[1,2-a]pyrazin-6(7H)-one]
10 to 100 | 100 to 1000 | O=C(NC1CC1)c1cc2c(-c3cncc(-c4ccc(N5CCCC5=O)cc4)c3)ccnc2[nH]1 [Example 242, N-cyclopropyl-4-(5-(4-(2-oxopyrrolidin-1-yl)phenyl)pyridin-3-yl)-1H-pyrrolo[2,3-b]pyridine-2-carboxamide]
10 to 100 | 10 to 100 | O=C1CCCN1c1ccc(-c2cncc(-c3ccnc4c3cc3n4CCN(c4ccccn4)C3=O)c2)cc1 [Example 207, 4-(5-(4-(2-oxopyrrolidin-1-yl)phenyl)pyridin-3-yl)-7-(pyridin-2-yl)-8,9-dihydropyrido[3′,2′:4,5]pyrrolo[1,2-a]pyrazin-6(7H)-one]
10 to 100 | 100 to 1000 | CC(C)CNC(=O)c1cc2c(-c3cncc(-c4ccc(N5CCCC5=O)cc4)c3)ccnc2[nH]1 [Example 234, N-isobutyl-4-(5-(4-(2-oxopyrrolidin-1-yl)phenyl)pyridin-3-yl)-1H-pyrrolo[2,3-b]pyridine-2-carboxamide]
1000 to 2500 | 1000 to 2500 | Cn1c(C(N)=O)cc2c(-c3cncc(-c4ccc(N5CCCC5=O)cc4)c3)cn(C)c2c1=O [Example 263, 1,6-dimethyl-7-oxo-3-(5-(4-(2-oxopyrrolidin-1-yl)phenyl)pyridin-3-yl)-6,7-dihydro-1H-pyrrolo[2,3-c]pyridine-5-carboxamide]
10 to 100 | 100 to 1000 | O=C(NCc1ccccn1)c1cc2c(-c3cncc(-c4ccc(N5CCCC5=O)cc4)c3)ccnc2[nH]1 [Example 239, 4-(5-(4-(2-oxopyrrolidin-1-yl)phenyl)pyridin-3-yl)-N-(pyridin-2-ylmethyl)-1H-pyrrolo[2,3-b]pyridine-2-carboxamide]
10 to 100 | 100 to 1000 | O=C(NCc1cccnc1)c1cc2c(-c3cncc(-c4ccc(N5CCCC5=O)cc4)c3)ccnc2[nH]1 [Example 238, 4-(5-(4-(2-oxopyrrolidin-1-yl)phenyl)pyridin-3-yl)-N-(pyridin-3-ylmethyl)-1H-pyrrolo[2,3-b]pyridine-2-carboxamide]
10 to 100 | 100 to 1000 | O=C(NCCc1cnccn1)c1cc2c(-c3cncc(-c4ccc(N5CCCC5=O)cc4)c3)ccnc2[nH]1 [Example 255, 4-(5-(4-(2-oxopyrrolidin-1-yl)phenyl)pyridin-3-yl)-N-(2-(pyrazin-2-yl)ethyl)-1H-pyrrolo[2,3-b]pyridine-2-carboxamide]

The next lines start with the compound.

Structure (SMILES) | IC50 (GST tagged PIP4KtypeIIB) [nM] | IC50 (GST tagged PIP4KtypeIIA) [nM]
O=C(NCc1ccccc1)c1cc2c(-c3cncc(-c4ccc(N5CCCC5=O)cc4)c3)ccnc2[nH]1 [Example 232, N-benzyl-4-(5-(4-(2-oxopyrrolidin-1-yl)phenyl)pyridin-3-yl)-1H-pyrrolo[2,3-b]pyridine-2-carboxamide] | 10 to 100 | 100 to 1000
CN(C)C(=O)c1ccc(-c2cc(-c3ccnc4[nH]c(C(=O)N5CCCC5)cc34)cnc2N)nc1 [Example 141, 2′-amino-N,N-dimethyl-5′-(2-(pyrrolidine-1-carbonyl)-1H-pyrrolo[2,3-b]pyridin-4-yl)-[2,3′-bipyridine]-5-carboxamide] | 10 to 100 | 100 to 1000
CN(C)C(=O)c1ccc(-c2cc(-c3ccnc4[nH]c(C(=O)NC5COC5)cc34)cnc2N)nc1 [Example 146, 4-(2′-amino-5-(dimethylcarbamoyl)-[2,3′-bipyridin]-5′-yl)-N-(oxetan-3-yl)-1H-pyrrolo[2,3-b]pyridine-2-carboxamide] | 10 to 100 | 100 to 1000
Cc1cc(N2CCCC2=O)ccc1-c1cncc(-c2cn(C)c3ncc(C(C)O)cc23)c1 (stereo not drawn) [Example 197, 1-(4-(5-(5-(1-hydroxyethyl)-1-methyl-1H-pyrrolo[2,3-b]pyridin-3-yl)pyridin-3-yl)-3-methylphenyl)pyrrolidin-2-one] | 100 to 1000 | 100 to 1000
O=C(Nc1ccc(-c2cncc(-c3ccnc4[nH]ncc34)c2)cc1)C(=O)N1C2CCC1CC2 [Example 204, N-(4-(5-(1H-pyrazolo[3,4-b]pyridin-4-yl)pyridin-3-yl)phenyl)-2-(7-azabicyclo[2.2.1]heptan-7-yl)-2-oxoacetamide] | > 5000 | 100 to 1000
O=C(NC1CC1c1ccccc1)c1cc2c(-c3cncc(-c4ccc(N5CCCC5=O)cc4)c3)ccnc2[nH]1 (stereo not drawn) [Example 264, 4-(5-(4-(2-oxopyrrolidin-1-yl)phenyl)pyridin-3-yl)-N-(2-phenylcyclopropyl)-1H-pyrrolo[2,3-b]pyridine-2-carboxamide] | 10 to 100 | 100 to 1000
Cc1cc(N2CCCC2=O)ccc1-c1cncc(-c2cn(C)c3ncc([C@H](C)O)cc23)c1 (single isomer, unassigned) [197(S)] | 1000 to 2500 | 100 to 1000
O=C1CCCN1c1ccc(-c2cncc(-c3ncnc4nc(C5CCC5)[nH]c34)c2)cc1 [Example 289, 1-(4-(5-(8-cyclobutyl-7H-purin-6-yl)pyridin-3-yl)phenyl)pyrrolidin-2-one] | 1000 to 2500 | 2500 to 5000
CN(C)C(=O)c1ccc(-c2cc(-c3ccnc4[nH]c(C(=O)N5CC6(COC6)C5)cc34)cnc2N)nc1 [Example 147, 5′-(2-(2-oxa-6-azaspiro[3.3]heptane-6-carbonyl)-1H-pyrrolo[2,3-b]pyridin-4-yl)-2′-amino-N,N-dimethyl-[2,3′-bipyridine]-5-carboxamide] | 10 to 100 | 100 to 1000
CN(C)C(=O)c1ccc(-c2cc(-c3ccnc4[nH]c(C(=O)NCCc5ncc[nH]5)cc34)cnc2N)nc1 [Example 150, N-(2-(1H-imidazol-2-yl)ethyl)-4-(2′-amino-5-(dimethylcarbamoyl)-[2,3′-bipyridin]-5′-yl)-1H-pyrrolo[2,3-b]pyridine-2-carboxamide] | 10 to 100 | 100 to 1000
COC(=O)c1cc2c(-c3cncc(-c4ccc(N5CCCC5=O)cc4)c3)c(C)cnc2[nH]1 [Example 290, methyl 5-methyl-4-(5-(4-(2-oxopyrrolidin-1-yl)phenyl)pyridin-3-yl)-1H-pyrrolo[2,3-b]pyridine-2-carboxylate] | 100 to 1000 | 100 to 1000
Cc1nn2c(=O)c(CCO)c(C)[nH]c2c1-c1cncc(-c2ccc(N3CCCC3=O)cc2)c1 [Example 284, 6-(2-hydroxyethyl)-2,5-dimethyl-3-(5-(4-(2-oxopyrrolidin-1-yl)phenyl)pyridin-3-yl)pyrazolo[1,5-a]pyrimidin-7(4H)-one] | 100 to 1000 | 100 to 1000
COC(=O)c1cc2c(-c3cncc(-c4ccc(N5CCCC5=O)cc4)c3)c(Cl)cnc2[nH]1 [Example 296, methyl 5-chloro-4-(5-(4-(2-oxopyrrolidin-1-yl)phenyl)pyridin-3-yl)-1H-pyrrolo[2,3-b]pyridine-2-carboxylate] | 100 to 1000 | 100 to 1000
CN(C)C(=O)c1ccc(-c2cc(-c3ccnc4[nH]c(C(=O)NCCN)cc34)cnc2N)nc1 [Example 133, 4-(2′-amino-5-(dimethylcarbamoyl)-[2,3′-bipyridin]-5′-yl)-N-(2-aminoethyl)-1H-pyrrolo[2,3-b]pyridine-2-carboxamide] | 100 to 1000 | 1000 to 2500
